Experimental data reported in ChEMBL document CHEMBL3232726, “Discovery of 2-oxo-1,2-dihydrobenzo[cd]indole-6-sulfonamide derivatives as new RORγ inhibitors using virtual screening, synthesis and biological evaluation” (Eur J Med Chem, 2014).

Key:
[1] = target: T1, Nuclear receptor ROR-gamma (Homo sapiens, UniProt P51449); test: Antagonist activity at human His6-tagged RORgamma ligand binding domain (262 to 507 aa) assessed as inhibition of SRC1-4 co-activator peptide recruitment by luminescence-based AlphaScreen assay
T1 sequence (P51449 whole entry): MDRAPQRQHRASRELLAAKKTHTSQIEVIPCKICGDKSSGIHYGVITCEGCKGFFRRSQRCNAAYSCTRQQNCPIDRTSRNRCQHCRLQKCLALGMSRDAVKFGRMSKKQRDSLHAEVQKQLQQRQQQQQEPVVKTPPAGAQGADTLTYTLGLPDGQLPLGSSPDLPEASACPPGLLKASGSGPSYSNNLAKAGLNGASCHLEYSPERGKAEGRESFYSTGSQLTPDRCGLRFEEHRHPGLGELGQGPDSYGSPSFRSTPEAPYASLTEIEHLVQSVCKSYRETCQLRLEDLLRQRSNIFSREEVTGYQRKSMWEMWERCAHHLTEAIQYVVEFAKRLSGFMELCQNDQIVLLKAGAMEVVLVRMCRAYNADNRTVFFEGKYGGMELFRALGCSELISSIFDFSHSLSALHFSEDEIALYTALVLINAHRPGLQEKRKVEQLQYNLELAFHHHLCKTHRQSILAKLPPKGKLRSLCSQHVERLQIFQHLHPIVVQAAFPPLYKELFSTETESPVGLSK

[2] = target: T1, Nuclear receptor ROR-gamma; test: Antagonist activity at full-length RORgamma (unknown origin) expressed in 293T cells after 24 hrs by luciferase reporter gene assay; format: cell-based
[3] = target: T1, Nuclear receptor ROR-gamma; test: Antagonist activity at Gal4-fused RORgamma (unknown origin) expressed in 293T cells after 24 hrs by luciferase reporter gene assay; format: cell-based

Row | Compound | IC50 [1] [µM] | IC50 [2] [µM] | IC50 [3] [µM]
1 | CCN1C(=O)c2cccc3c(S(=O)(=O)NCc4ccc(OC)cc4)ccc1c23 | 174 | – | –
2 | CCN1C(=O)c2cccc3c(S(=O)(=O)N(C(=O)c4ccncc4)c4ccc(OC)cc4)ccc1c23 | 6.47 | 0.08 | 0.09
3 | CCN1C(=O)c2cccc3c(S(=O)(=O)NCC4CCN(C(C)=O)CC4)ccc1c23 | – | 0.59 | 6.03
4 | NC(=O)c1ccc(NC(=O)c2cccc(COc3ccc(Cl)cc3)c2)cc1 | 168 | – | –

Further lines, results first:

Row | IC50 [1] [µM] | IC50 [2] [µM] | IC50 [3] [µM] | Compound
5 | 156 | – | – | CCN1C(=O)c2cccc3c(S(=O)(=O)Nc4ccccc4C(=O)c4ccccc4)ccc1c23
6 | 56.6 | – | – | C=CCn1c(COc2ccc(Cl)cc2)nnc1SCC(=O)N/N=C/c1cccc(O)c1
7 | 142 | – | – | C=CCn1c(CCCN2C(=O)c3cccc4cccc(c34)C2=O)nnc1SCC(=O)Nc1ccc(S(N)(=O)=O)cc1
